Starred links: 1 amine or outer side, 2 acyl side, 3 side chain; linkers in the order of their positions; H or OH if unused. Non-standard residues stand in square brackets, D forms with d. Residues, ends and D or L forms follow the SMILES beside them. ξ: configuration not given here. *: point of attachment. X1 = CCC(=O)C[C@@H](O)C[C@@H](C)C[C@H](N[*:1])C(=O)[*:2]; Alaψ(CH2NMeCH2CH2OH) = C[C@@H](CN(C)CCO)N*; Decanoyl(2R-Me) = CCCCCCCC[C@@H](C)C(=O)*; Ile(3ξ) = CCC(C)[C@H](N)C(=O)O; ξβ3hP = O=C(O)CC1CCCN1; Aib = CC(C)(N)C(=O)O
How the values were obtained:
[1] = Inhibition of Mycobacterium smegmatis cytochrome bd oxidase with ATP overexpression inverted membrane vesicles; assay type: cell membranes, Mycobacterium tuberculosis, Membrane vesicle
[2] = Inhibition of Mycobacterium bovis BCG cytochrome bd oxidase with ATP synthase overexpression inverted membrane vesicles; assay type: cell membranes, Mycobacterium tuberculosis variant bovis, Membrane vesicle
[3] = Inhibition of Mycobacterium smegmatis cytochrome bd oxidase with ATP synthase overexpression inverted membrane vesicles; assay type: cell membranes, Mycobacterium tuberculosis, Membrane vesicle

SMILES	IC50 [1] [µM]	IC50 [2] [µM]	IC50 [3] [µM]
O=C(CNC1CCCCC1)N(c1ccccc1)c1ccccc1	10.4		
O=C(CNC1CCCC1)N(c1ccccc1)c1ccccc1	14		
CCCCCCCC[C@@H](C)C(=O)N1CCCC1CC(=O)N[C@@H](C[C@H](C)C[C@H](O)CC(=O)CC)C(=O)NC(C)(C)C(=O)NC(C)(C)C(=O)N[C@H](C(=O)N[C@H](C(=O)NC(C)(C)C(=O)NC(C)(C)C(=O)N[C@@H](C)CN(C)CCO)C(C)C)C(C)CC (stereo partly drawn) ({Decanoyl(2R-Me)}-[ξβ3hP][X1][Aib][Aib][Ile(3ξ)]V[Aib][Aib]-{Alaψ(CH2NMeCH2CH2OH)})		5.2	0.5

Source: ChEMBL document CHEMBL5226287, “Small organic molecules targeting the energy metabolism of Mycobacterium tuberculosis” (Eur J Med Chem, 2021)
